Experimental data as given in article PMC10964925 (European journal of medicinal chemistry, 2024).

Columns and labels:
[1] = molecular target: T1, FimHLD (isolated lectin domain of FimH) (Escherichia coli, UniProt P08191); conditions: read-out: KD FimHLD; competitive FPA; mannosides; ref [18] and [19]; cited from earlier work
[2] = molecular target: T1, FimHLD (isolated lectin domain of FimH); assay: competitive fluorescence polarization assay; assay type: binding; conditions: for factor of affinity improvement from 1: aglycone optimization
[3] = ligand solubility in assay buffer; assay type: physicochemical; conditions: for solubility: assay buffer with 5% or 10% DMSO; for highest achievable ligand concentration: assay buffer, final DMSO concentration 10%
[4] = molecular target: FimHLD (Escherichia coli, UniProt P08191); assay: isothermal titration calorimetry; assay type: binding; conditions: ITC KD versus FPA KD
Chain of FimHLD (P08191 22-179): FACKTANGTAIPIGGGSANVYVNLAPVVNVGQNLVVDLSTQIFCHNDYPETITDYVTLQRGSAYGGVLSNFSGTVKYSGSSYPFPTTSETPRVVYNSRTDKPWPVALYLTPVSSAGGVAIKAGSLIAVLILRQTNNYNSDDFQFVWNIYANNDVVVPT

[5] = molecular target: FimHFL (full length FimH) (Escherichia coli, UniProt P08191); assay: competitive fluorescence polarization assay; assay type: binding
Chain of FimHFL (full length FimH) (P08191 22-300, other chains not shown): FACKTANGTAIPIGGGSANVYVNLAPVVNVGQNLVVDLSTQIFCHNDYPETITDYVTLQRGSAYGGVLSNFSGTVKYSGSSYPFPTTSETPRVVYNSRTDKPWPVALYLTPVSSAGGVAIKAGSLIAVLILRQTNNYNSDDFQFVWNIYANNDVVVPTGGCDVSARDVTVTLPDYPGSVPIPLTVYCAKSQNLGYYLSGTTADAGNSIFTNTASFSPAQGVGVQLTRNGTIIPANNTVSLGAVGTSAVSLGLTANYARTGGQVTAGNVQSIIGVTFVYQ

T1 sequence (P08191 22-179): as the sequence (P08191 22-179) above

N#Cc1ccc(-c2ccc(O[C@H]3O[C@H](CO)[C@@H](O)[C@H](O)[C@@H]3O)cc2)cc1 [compound 27]
Kd [1]: 2 nM

N#Cc1ccc(-c2ccc(CO[C@H]3CO[C@H](CO)[C@@H](O)[C@H](O)[C@@H]3O)c(Cl)c2)cc1 [9a, 2-O-(2-chloro-4-[4-cyanophenyl]benzyl)-1,6-anhydro-D-glycero-D-galactitol]
factor of affinity improvement from 1 ([2]; FPA): 1.5

OC[C@H]1OC[C@H](Oc2ccc(-c3ccccc3)cc2Cl)[C@@H](O)[C@@H](O)[C@@H]1O [8c, 2-O-[4-phenyl-2-chlorophenyl]-1,6-anhydro-D-glycero-D-galactitol]
solubility [3]: low solubility
highest achievable ligand concentration [3]: ≤ 500 µM
factor of affinity improvement from 1 ([2]; FPA): 32

N#Cc1ccc(-c2ccc(O[C@H]3CO[C@H](CO)[C@@H](O)[C@H](O)[C@@H]3O)cc2)cc1 [compound 6, 2-O-(4-[4-cyanophenyl]phenyl)-1,6-anhydro-D-glycero-D-galactitol]
ITC binding affinity lower than recorded in the FPA assay [4]: approx. 3 fold
solubility [3]: low solubility
highest achievable ligand concentration [3]: ≤ 500 µM
factor of affinity increase compared to 7a ([2]; FPA): 6

N#Cc1ccc(-c2ccc(CO[C@H]3CO[C@H](CO)[C@@H](O)[C@H](O)[C@@H]3O)cc2)cc1 [7a, 2-O-(4-[4-cyanophenyl]benzyl)-1,6-anhydro-D-glycero-D-galactitol]
increase in binding affinity to FimHFL ([5]; para-cyano group on outer aromatic ring versus unsubstituted 7c): approximately 2 fold
solubility [3]: insufficient solubility

N#Cc1ccc(-c2ccc(O[C@H]3CO[C@H](CO)[C@@H](O)[C@H](O)[C@@H]3O)c(Cl)c2)cc1 [8a, 2-O-[4-(4’-cyanophenyl)-2-chlorophenyl]-1,6-anhydro-D-glycero-D-galactitol]
factor of affinity gain by ortho-chloro modification ([5]; FimHFL, FPA, versus 6): 6
solubility [3]: low solubility
highest achievable ligand concentration [3]: ≤ 500 µM
factor of affinity improvement compared to 6 ([2]; FPA, ortho-chloro modification): 2.6

NC(=O)c1ccc(-c2ccc(O[C@H]3O[C@H](CO)[C@@H](O)[C@H](O)[C@@H]3O)cc2)cc1 [compound 28]
Kd [1]: 2.8 nM

N#Cc1ccc(-c2ccc(O[C@H]3O[C@H](CO)[C@@H](O)[C@H](O)[C@@H]3O)c(Cl)c2)cc1 [compound 30, reference compound]
factor of affinity improvement comparing 2 to 30 ([2]; mannoside ligands, from literature KD values): 56.6

OC[C@H]1OC[C@H](OCc2ccccc2)[C@@H](O)[C@@H](O)[C@@H]1O [compound 4, 2-O-benzyl-1,6-anhydro-D-glycero-D-galactitol]
factor of loss in binding affinity compared to phenylpropyl analog 5 ([2]; FPA): 10
